Laboratory results taken from patent publication US5561122A, “Combretastatin A-4 prodrug” (Arizona Board of Regents acting on behalf of Arizona State …, priority 1994, dated 1996).
Like-named read-outs stand apart in the source and are kept apart here.

Experiments:
tubulin = conditions: Hamel et al., 1989; cited from earlier work
[1] = test system: NCI 60 cell line panel (human tumor cell lines); assay: NCI 60 cell line full-panel screen (growth inhibition) with COMPARE analysis; format: cell-based; conditions: for GI50: Homo sapiens, 60 cell, read-out: mean panel GI50 concentration
Excerpt: The following measures are used to express drug activity by giving the drug dose which reduces cell growth to a specified percentage of growth:
ED50 (P388) and GI50 (HTCL) are the drug doses needed to reduce the percent growth to 50%. There is no mathematical difference between ED50 and GI50, which are both calculated using the same formula. The only difference is historical usage.
Total Growth Inhibition ("TGI") is the drug dose needed to yield zero percent growth, i.e., just as many cells at the end of the experiment as were present in the beginning. Whether just as many cells were killed as were produced (steady state), or no growth occurred (total inhibition), cannot be distinguished.
Lethal Concentration 50% ("LC50 ") is the drug concentration which reduces growth to -50%, i.e., removes half of the cells originally present at the beginning of the experiment.
Each drug is tested at five (5) doses: 100 - 10 - 1 - 0.1 -0.01 μg/ml. Percent Growths are calculated for each dose. The two (or three) doses with growth values above, below, (or near to) 50% growth are used to calculate the ED50 /GI50 using a linear regression formula. The log of the dose is used during the regression computation. If no dose yields a growth value under 50%, the results are expressed as: ED50 >(highest dose). If no dose yields growth higher than 50% growth, then ED50 <(lowest dose). Similar calculations are performed for the TGI at 0% growth, and at -50% growth for the LC50.
At the start of an experiment, cells from the in vitro cell cultures are inoculated into the appropriate tubes or microtiter plates. One set of control tubes/plates is immediately counted to determine the number of cells at the start of the experiment. This is the "baseline count" or "Tzero reading". At the end of the experiment (48 hours later) a second set of control tubes/plates is analyzed to determine the "Control Growth" value. The growth (or death) of cells relative to the initial quantity of cells is used to define the "Percent of Growth".
For further information about the testing protocols and procedures see Anne Monks et al., "Feasibility of a High-Flux Anticancer Drug Screen Using a Diverse Panel of Cultured Human Tumor Cell Lines", 83 J. Nat. Cancer Inst. No. 11, pp. 757-66 (5 Jun. 1991) and […], "Status of the NCI Preclinical Antitumor Drug Discovery Screen" 3 Princ & Practice of Oncology Updates No. 10, pp. 1-12 (October 1989).
By definition a pro-drug is a precursor which will undergo metabolic activation in vivo to the active drug. […] Combretastatin A-4 (1a) and prodrug (1h) were then comparatively evaluated against the full-panel NCI screen (M. R. Boyd, "Status of the NCI Preclinical Antitumor Drug Discovery Screen: Implications for Selection of New Agents for Clinical trial," 3 Cancer: Principles and Practice of Oncology Updates No. 10, pp1-12 (1989) and M. R. Boyd et al. "The Future of New Drug Development. Section I. Introduction to Cancer Therapy," Current Therapy in Oncology. Philadelphia: Decker (1993)). […]

cancer cell = conditions: Von Hoff et al., 1993; cited from earlier work
[2] = stability / reaction with water; format: physicochemical

COc1ccc(/C=C\c2cc(OC)c(OC)c(OC)c2)cc1O [Compound 1a, combretastatin A-4]
tubulin assembly inhibition (tubulin): potent
GI50 ([1]; full-panel NCI screen, mean over panel, quadruplicate, 48 hours): 6.61 nM
cancer cell growth inhibition (cancer cell): potent

COc1ccc(/C=C\c2cc(OC)c(OC)c(OC)c2)cc1OC(=O)CCC(=O)O [Compound 1d]
reaction with water [2]: regenerated combretastatin A-4
aqueous solubility (in words) (water solubility): essentially insoluble

COc1ccc(/C=C\c2cc(OC)c(OC)c(OC)c2)cc1O [Compound 1c]
reaction with water [2]: regenerated combretastatin A-4

COc1ccc(/C=C\c2cc(OC)c(OC)c(OC)c2)cc1OP(=O)(O)O [Compound 1h, Disodium combretastatin A-4 3-O-Phosphate]
GI50 ([1]; 48 h): 6.89 nM
Pearson correlation coefficient for the differential cytotoxicity profiles (TGI-COMPARE) ([1]; combretastatin A-4 (1a) vs its prodrug (1h)): 0.91
cell growth inhibitory activity ([1]; compared with combretastatin (1a)): comparable
in vitro activity levels in the NCI 60 cell line panel ([1]; compared with combretastatin A-4, activity level and COMPARE algorithm): reasonably similar

COc1ccc(/C=C\c2cc(OC)c(OC)c(OC)c2)cc1OP(=O)(O)O [Compound 1f, Ammonium hydrogen combretastatin A-4 3-O Phosphate]
aqueous solubility (in words) (water solubility): most soluble

COc1ccc(/C=C\c2cc(OC)c(OC)c(OC)c2)cc1OP(=O)(O)O [Compound 1g, Dipotassium combretastatin A-4 3-O-phosphate]
stability (in words) [2]: most stable

COc1ccc(/C=C\c2cc(OC)c(OC)c(OC)c2)cc1O [Compound 1b]
reaction with water [2]: regenerated combretastatin A-4
